Data on 3 compounds can be found in patent US20260315434A1, “USE OF GUAIACOL SESQUITERPENE LACTONE DERIVATIVES” (NANJING UNIVERSITY OF CHINESE MEDICINE, priority 2023, published 2026).

By solubility is commonly meant the dissolved amount per volume that the medium holds.

Data set [1] has as its system mouse ear atopic dermatitis. As to the kind of experiment: MC903-induced atopic dermatitis of the ear, ointment: ear thickness, dermatitis score, lesions. The format is in vivo. The note with it: for Dermatitis Score, ear: 7 days, max score 12; for inhibition rate of ear thickness increase: final day. As to the method: (1) Preparation of Oil Phase: Weigh white petrolatum, light liquid paraffin, glyceryl monostearate, ethylparaben, and cetyl alcohol. Heat to 65° C. while stirring until dissolved. Slowly add the dissolved active pharmaceutical ingredient (API) while continuing to stir until uniformly mixed. Set aside.
(2) Aqueous Phase Preparation: Weigh purified water and Tween 80, heat to 70° C., stir to dissolve, and set aside;
(3) Emulsification: Slowly add the aqueous phase to the oil phase while maintaining 65° C., homogenize, and continue stirring for 30 min;
(4) Cooling: Stop heating, continue stirring, gradually reduce to room temperature, cool to form an ointment, and fill containers.
(§1) Dissolve these substances in a small amount of propylene glycol, then place the resulting solution into the aforementioned pre-cooled blank ointment base. Finally, add water to make the total mass up to 10 g, and grind the mixture thoroughly in a mortar.
(§2) Except for the Normal group, all other groups underwent AD modeling: 20 μL of MC903 solution (also known as calcipotriol, purchased from Shanghai Yuanye Biotechnology Co., Ltd., used for inducing atopic models) was applied to each mouse's ears once daily for 14 consecutive days to induce the atopic dermatitis model. […] Measure ear thickness changes every 2 days using an electronic caliper before modeling and after treatment initiation.
(§3) Skin Lesion Severity Score: Daily skin lesion severity was assessed in mice using the following criteria, primarily encompassing four symptoms: 1) erythema/hemorrhage; 2) dryness; 3) desquamation/erosion; 4) edema. Each symptom was scored from 0 to 3 based on lesion severity: no symptoms=0 points, mild=1 point, moderate=2 points, severe=3 points. […] Higher scores indicated more severe lesions, with a maximum score of 12. Statistical analysis was performed on the data.

Data set [2] concerns inflammatory markers in the ears of AD mice. Briefly: MC903-induced atopic dermatitis of the ear, ointment: mRNA of inflammatory markers. It is filed as in vivo, mouse. As to the method: as §1, §2
The test system of data set [3] is dorsal atopic dermatitis. As to the kind of experiment: MC903-induced atopic dermatitis of the dorsum, ointment: skin thickness, dermatitis score, lesions. It is filed as in vivo, mouse. The conditions noted are these: for inhibition rate of dorsal skin thickness increase: final day. As to the method: as §1
Except for the Normal group, all other groups underwent AD modeling: 48 hours prior to the experiment, hair on the dorsal neck region was meticulously removed using clippers and depilatory cream. Following modeling initiation, 20 μL of MC903 solution was applied once daily to the dorsal neck region for 14 consecutive days to induce the AD model. […] Model and control group mice received daily application of blank ointment. Twenty-four hours after completing the 14-day modeling period, photographs of skin lesions were taken, and skin lesion and blood samples were collected.
as §3

For data set [4], the system named is T cells / MDSCs. As to the kind of experiment: Promotion of T cell proliferation in a co-culture model of MDSCs and T cells. The note with it: for activation at 1 µM: Mus musculus, T-cell, 12 h, read-out: T-cell proliferation rate (%), 1 μM, MDSCs treated 12 hours, co-culture of MDSCs and T cells, compared to the control group. It is filed as cell-based, mouse. In a few lines: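 Bone-marrow MDSCs, after compound treatment, were co-cultured 48 h at 1:1 with CFDA-SE-labelled (10 μM solution), activated splenic T cells. Proliferation of CD3+ T cells was read by flow cytometry.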

For data set [5], the system named is MDSCs. Briefly: Inhibition of MDSC chemotaxis (Transwell, tumor-conditioned medium). It is filed as cell-based, mouse. Details: inhibition of MDSC chemotaxis compared to Arg: dose or concentration left out as unconfirmed. As to the method: Hepa1-6 mouse hepatocellular carcinoma cells were uniformly seeded into 6-well plates. After cells reached confluence, supernatant was aspirated, and 1-1.5 mL fresh medium was added to each well. Following 24 h culture, supernatant was collected, centrifuged at 1600 rpm for 5 min, aspirated, and filtered through a 0.22 μm membrane to obtain tumor-conditioned medium for subsequent use. […] Under sterile conditions, remove the tibia, cut both ends of the bone, and aspirate the bone marrow into a 1 mL syringe. Repeat flushing into a 15 mL centrifuge tube. Centrifuge at 1600 rpm for 5 min to collect bone marrow cells. Wash twice with 1×PBS. […] Count cells, adjust density to 1×10^6 cells/mL, and uniformly seed into 24-well plates at 300 μL per well. […] Centrifuge at 1600 rpm for 5 min, remove supernatant, resuspend cells in 300 μL fresh medium, and place into Transwell chambers. […] Co-culture for 24 h.

The subject of data set [6] is CCR2 mRNA. As to the kind of experiment: Inhibition of CCR2 mRNA level in MDSCs. It is filed as cell-based. The note with it: Mus musculus, 2 h, read-out: Suppression Rate (inhibition of CCR2 mRNA levels). As to the method: Under sterile conditions, the tibia was removed, both ends of the bone were cut, and bone marrow was repeatedly flushed into a 15 mL centrifuge tube using a 1 mL syringe filled with culture medium. Centrifuge at 1600 rpm for 5 min to collect bone marrow cells. […] Count cells and adjust density to 1×10^6 cells/mL in complete medium. Seed cells uniformly into 6-well plates at 2 mL per well. […] After incubation, collect cells into centrifuge tubes, centrifuge at 1600 rpm for 5 min, wash once with 1×PBS, and add 500 μL RNA extraction reagent to each tube. After centrifugation to obtain the pellet, add 20 μL DEPC-treated water to each tube to dissolve the pellet. Determine RNA concentration and reverse transcribe to cDNA. Add the cDNA, primers, and […] to a 96-well plate. Centrifuge at 4000 rpm for 5 min, then place in a PCR instrument for detection.

Data set [7] can be described thus: Water solubility testing of compounds (HPLC). The note with it: deionized water, water, Water-solubility, 37 °C.
Data set [8] deals with inflammatory cytokines (IL-1β, IL-6) in lung tissue. Briefly: LPS-induced acute lung injury, inflammatory cytokines by ELISA. The format is in vivo, C57BL/6 mice. The conditions noted are these: 5 mg/kg; LPS 2411.32. As to the method:
After a 7-day acclimatization period, mice were used for subsequent experiments.
The abdomen was opened, and the lungs were removed. They were rinsed twice with pre-chilled PBS. […] The remaining tissue was stored at −70° C. for future use.
Data Statistics: All data are expressed as means S.E.M. Statistical differences between groups were analyzed using one-way ANOVA and t-tests in SPSS software. P values less than 0.05 were considered statistically significant.
On the technique in general: In an ELISA, binding on a coated surface is turned into a signal by an enzyme label.

Data set [9] concerns inflammatory factors (TNF, IL-6, IL-1) in renal tissue. As to the kind of experiment: Lupus nephritis, renal inflammatory factor mRNA. The format is in vivo, MRL/lpr mice. The note with it: 3 mg/kg, oral, 8 weeks. As to the method: Experimental animals: MRI/MpJ and MRL/lpr mice, female, 10 weeks old, purchased from GemPharmatech LLC. Production license number: SCXK(Su)2023-0009. […] They were acclimated for 7 days before use in experiments.
Oral administration was performed continuously for 8 weeks.
Allow blood to stand at room temperature for 2 hours, then centrifuge at 3000 rpm for 20 minutes. Aspirate the serum, aliquot it, and store at −70° C. for future use. After blood collection, euthanize mice by cervical dislocation. Open the abdominal cavity, remove kidneys, and dissect out perirenal fat and capsules. […] Store remaining tissues at −70° C. for future use.

Data set [10] concerns IgE and inflammatory markers of AD mice. As to the kind of experiment: MC903-induced atopic dermatitis, oral administration: serum IgE and ear mRNA of inflammatory markers. The format is in vivo, mouse. Details: scale not given here. The conditions noted are these: 5 mg/kg. As to the method:
as §2

Data set [11] concerns inflammatory cytokines (TNF, IL-6, IL-1) in lung tissue. As to the kind of experiment: LPS-induced sepsis, lung inflammatory factor mRNA (Q-PCR). The conditions noted are these: 5 mg/kg.
Excerpt: (§4) They were acclimated for 7 days before experimentation.
(§5) The normal and model groups received equal volumes of solvent (0.5% CMC-Na) via oral gavage.
(§6) Specimen Collection: One hour after the final drug administration, mice were euthanized by cervical dislocation. The abdominal cavity was opened, and the lungs, liver, and kidneys were removed. These organs were rinsed twice with pre-chilled PBS. Tissue samples were excised from the mouse lungs, left hepatic lobe, and kidneys. […] Remaining tissues were stored at −70° C. for future use.
(§7) Accurately weigh 20 mg of kidney, lung, and liver tissue. Rinse with pre-chilled PBS solution, cut into small pieces using ophthalmic scissors, and place into a glass homogenizer. Add 1 mL of Trizol reagent and grind to prepare tissue homogenate. Transfer the homogenate to a RNAse-free 1.5 mL EP tube and lyse on ice for 10 min. Add 200 μL chloroform, vortex vigorously, and let stand on ice for 3-5 min. Centrifuge at 12,000 rpm and 4° C. for 15 min. Carefully transfer the supernatant to a new RNAse-free 1.5 mL EP tube. Add an equal volume of pre-chilled isopropanol, incubate on ice for 30 min, then centrifuge at 12,000 rpm and 4° C. for 10 min. Discard the supernatant. […] Subsequently, dissolve the pellet in 10 μL DEPC-treated water. Dilute 1 μL of the total RNA solution 100-fold and measure the OD values at 260 nm and 280 nm using a full-wavelength microplate reader.
(§8) Following the method described in the kit manual, subsequent experiments were conducted using a 20 μL reverse transcription reaction system:
(§9) Primers were designed based on the nucleotide sequence of the mouse in GenBank and synthesized.
(§10) Perform subsequent experiments using a 20 μL reaction system according to the kit instructions:
(§11) After adding the above reagents to micro reaction tubes, seal them with the cap and place them in the Q-PCR instrument. Set the parameters according to the following reaction conditions to perform the amplification experiment.
(§12) Record the threshold cycle (Ct) values for each group and perform calculation and analysis using the 2^−ΔΔCt method (setting the expression level of the reference gene Gapdh as 1 to correct the expression levels of the target genes).
(§13) Data Statistics: All data are presented as Means±S.E.M. Analysis of variance (ANOVA) was performed to assess the significance of differences. Groups showing significant differences in ANOVA were further compared using one-way ANOVA and Dunnett's test. A P-value <0.05 was considered statistically significant.
Data set [12] has as its system inflammatory factors (TNF, IL-6, IL-1) in renal tissue. Briefly: LPS-induced sepsis, renal inflammatory factor mRNA (Q-PCR). The conditions noted are these: 5 mg/kg.
Excerpt: as §4, §5, §6, §7, §8, §9, §10, §11, §12, §13
Data set [13] relates to inflammatory factors (TNF, IL-6, IL-1) in liver tissue. Briefly: LPS-induced sepsis, hepatic inflammatory factor mRNA (Q-PCR). The conditions noted are these: 5 mg/kg.
Excerpt: as §4, §5, §6, §7, §8, §9, §10, §11, §12, §13
Data set [14] relates to tumor cells. The conditions noted are these: in vitro cell models, result in words; cited from earlier work.
Data set [15] has as its system Hepa1-6 transplanted tumor. The note with it: 30 mg/kg i.p., 14 consecutive days; cited from earlier work.
Data set [16] has as its system HepG2 and Huh7 HCC cell transplanted tumor. The conditions noted are these: HepG2 and Huh7 transplanted tumor models; cited from earlier work.
Where [17] appears, read: Mus musculus, read-out: Suppression Rate (MDSC chemotaxis).

Each structure is given as a SMILES string. ≈ marks a conversion by molar mass, not a printed value.

Regarding `C=C1C(=O)O[C@@H]2[C@@H]3[C@]4(CC[C@@]3(C)O)C[C@]4(C)CC[C@@H]12` [Compound 1], in [1] (0.01% ointment), the “Dermatitis Score, ear” value was 3.50 ± 0.22. In addition, in data set [1] (0.01%, 0.1%, 1% ointment), the “AD-like skin lesions on the ears” value is “significantly alleviated”. Moreover, the results for the “inhibition rate of ear thickness increase” value in data set [1] (0.01% ointment), in [1] (0.1% ointment) and in data set [1] (1% ointment) were 71%, 71% and 80%, respectively. In data set [2] (0.01% ointment), the “I113 mRNA expression, ear” value is 3.30 ± 0.47. The “I131 mRNA expression, ear” value in data set [2] (0.1% ointment) came out at 1.64 ± 0.25; in [2] (1% ointment) it was 1.10 ± 0.19. In addition, the “AD-like skin lesions on the backs” value in data set [3] (0.01%, 0.1%, 1% ointment) is on record as “significantly alleviated”. In [3] (0.1% ointment, 7 days, max score 12), the “Dermatitis Score, back” value is reported as 2.50 ± 0.22. Moreover, the “inhibition rate of dorsal skin thickness increase” value in [3] (0.01% ointment) worked out at 66%; in data set [3] (0.1% ointment), 72%; in data set [3] (1% ointment), 83%. Also, the “T cell proliferation in MDSC-T cell co-culture” value in data set [4] (1 μM, result in words) is recorded as “significantly enhanced T-cell proliferation”. In data set [4], the activation at 1 µM was above 40%. Also, the figures for the inhibition at 1 µM in [5] (setting [17]) and in data set [6] were 42.3% and 35.2%, respectively. Further, the values for the inhibition at 10 µM in [5] (setting [17]) and in data set [6] were 83.3% and 76.5%, respectively. The “inhibition of MDSC chemotaxis compared to Arg” value in data set [5] (result in words) is “superior inhibition rates”. Also, the concentration in solution in data set [7] (solubility) was 1140 µg/mL (≈ 4.35 mM).

In the case of `C[C@@H]1C[C@H]2[C@@H]3CCC4=CC(=O)C=C[C@]4(C)[C@@]3(F)[C@@H](O)C[C@]2(C)[C@@]1(O)C(=O)CO` [Dex, Dexamethasone, reference compound], the IL-1β in data set [8] is recorded as 1873.00 ± 86.52 pg/mL. In addition, in data set [9], the “Il1 mRNA expression, kidney” value is recorded as 3.47 ± 0.35; the “Il6 mRNA expression, kidney” value was 1.12 ± 0.24; the “Tnf mRNA expression, kidney” value turned out to be 1.94 ± 0.30. Further, the “Dermatitis Score, ear” value in [1] (1% ointment) came to 3.50 ± 0.22. In data set [2] (1% ointment), the “I14 mRNA expression, ear” value was 1.35 ± 0.30; the “I113 mRNA expression, ear” value amounted to 1.91 ± 0.39; the “I131 mRNA expression, ear” value was found to be 1.86 ± 0.44; the “Il1 mRNA expression, ear” value is reported as 12.69 ± 4.22. In addition, in data set [2] (1% ointment), the “TSLP mRNA expression, ear” value came to 1.30 ± 0.17. Moreover, in [10], the “I14 mRNA expression, ear” value was 2.59 ± 0.38; the “I113 mRNA expression, ear” value stood at 1.89 ± 0.20; the “I131 mRNA expression, ear” value stood at 2.06 ± 0.20. The “Il1 mRNA expression, lung” value in [11] (LPS 19.01) was found to be 7.20 ± 0.36. The “Il6 mRNA expression, lung” value in data set [11] (LPS 20.34) is listed as 9.88 ± 0.80. In addition, the “Il1 mRNA expression, kidney” value in data set [12] (LPS 7.99) was determined as 6.05 ± 1.03. Besides, in data set [12] (LPS 8.80), the “Il6 mRNA expression, kidney” value is 5.76 ± 0.72. For the same compound, the “Il6 mRNA expression, liver” value in [13] (LPS 11.34) is 4.27 ± 1.33. For the same compound, the “Il1 mRNA expression, liver” value in data set [13] (LPS 11.52) is recorded as 7.54 ± 0.70.

For `C=C1C(=O)O[C@H]2[C@H]1CCC(C)=C1CC[C@@](C)(O)[C@@H]12` [MCL, Micheliolide], the activation at 1 µM in data set [4] lay within 20 to 40%. The “IC50, tumor cell growth inhibition” value in data set [14] is listed as “in the micromolar range”. Moreover, the “tumor weight inhibition rate” value in [15] is on record as 50%. The “effective dose, intraperitoneal” value in data set [16] is given as 25 mg/kg.
